Measured values taken from PubChem BioAssay (NCI).
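Exposure lasted 48 hours, with cells grown in 96-well plates and compounds tested at five concentrations. GI50: concentration for 50% inhibition of growth. Definition used: TGI = concentration required for complete inhibition of growth.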

Assays:
Assay in all cases: DTP human tumour cell line panel, 48 h
IGROV1 ovarian = tested on: IGROV1 ovarian
SK-MEL-28 melanoma = tested on: SK-MEL-28 melanoma
NCI-H460 lung = tested on: NCI-H460 lung
NCI-H522 lung = tested on: NCI-H522 lung
NCI/ADR-RES ovarian = tested on: NCI/ADR-RES ovarian
A498 renal = tested on: A498 renal
786-0 renal = tested on: 786-0 renal
LOX IMVI melanoma = tested on: LOX IMVI melanoma
SK-MEL-2 melanoma = tested on: SK-MEL-2 melanoma
K-562 leukemia = tested on: K-562 leukemia
HS 578T breast = tested on: HS 578T breast
HOP-92 NSCLC = tested on: HOP-92 NSCLC
HCC-2998 colon = tested on: HCC-2998 colon
CCRF-CEM leukemia = tested on: CCRF-CEM leukemia
ACHN renal = tested on: ACHN renal
A549 NSCLC = tested on: A549 NSCLC
PC-3 prostate = tested on: PC-3 prostate
MOLT-4 leukemia = tested on: MOLT-4 leukemia
SF-268 CNS = tested on: SF-268 CNS
SW-620 colon = tested on: SW-620 colon
MDA-MB-231 breast = tested on: MDA-MB-231 breast
U251 CNS = tested on: U251 CNS
MALME-3M melanoma = tested on: MALME-3M melanoma
COLO 205 colon = tested on: COLO 205 colon
MDA-MB-435 = tested on: MDA-MB-435
HT29 colon = tested on: HT29 colon
UACC-62 melanoma = tested on: UACC-62 melanoma
RXF 393 renal = tested on: RXF 393 renal
TK-10 renal = tested on: TK-10 renal
M14 melanoma = tested on: M14 melanoma
OVCAR-8 ovarian = tested on: OVCAR-8 ovarian
BT-549 breast = tested on: BT-549 breast
SNB-19 CNS = tested on: SNB-19 CNS
EKVX NSCLC = tested on: EKVX NSCLC
UACC-257 melanoma = tested on: UACC-257 melanoma
UO-31 renal = tested on: UO-31 renal
SK-OV-3 ovarian = tested on: SK-OV-3 ovarian
HL-60(TB) leukemia = tested on: HL-60(TB) leukemia
OVCAR-3 ovarian = tested on: OVCAR-3 ovarian
HOP-62 NSCLC = tested on: HOP-62 NSCLC
KM12 colon = tested on: KM12 colon
CAKI-1 renal = tested on: CAKI-1 renal
NCI-H226 lung = tested on: NCI-H226 lung
SR leukemia = tested on: SR leukemia
SK-MEL-5 melanoma = tested on: SK-MEL-5 melanoma
DU-145 prostate = tested on: DU-145 prostate
SF-539 CNS = tested on: SF-539 CNS
OVCAR-4 ovarian = tested on: OVCAR-4 ovarian
SNB-75 CNS = tested on: SNB-75 CNS
HCT-15 colon = tested on: HCT-15 colon
SN12C renal = tested on: SN12C renal
SF-295 CNS = tested on: SF-295 CNS
OVCAR-5 ovarian = tested on: OVCAR-5 ovarian
RPMI-8226 leukemia = tested on: RPMI-8226 leukemia
MCF7 breast = tested on: MCF7 breast
T-47D breast = tested on: T-47D breast

COC1CCN(Cc2ccc3c(NNC(=O)c4cnccn4)nc4cc(F)ccc4n23)C1 (centres undefined)
GI50 (IGROV1 ovarian): 1.13 µM
TGI (IGROV1 ovarian): 39.1 µM
GI50 (SK-MEL-28 melanoma): 3.37 µM
TGI (SK-MEL-28 melanoma): > 100 µM
GI50 (NCI-H460 lung): 0.453 µM
TGI (NCI-H460 lung): 13.6 µM
GI50 (NCI-H522 lung): 1.64 µM
TGI (NCI-H522 lung): 5.85 µM
GI50 (NCI/ADR-RES ovarian): 0.505 µM
TGI (NCI/ADR-RES ovarian): 16.6 µM
GI50 (A498 renal): 89.2 µM
TGI (A498 renal): > 100 µM
GI50 (786-0 renal): 1.93 µM
TGI (786-0 renal): 20.3 µM
GI50 (LOX IMVI melanoma): 1.13 µM
TGI (LOX IMVI melanoma): 2.87 µM
GI50 (SK-MEL-2 melanoma): 3.83 µM
TGI (SK-MEL-2 melanoma): 59.4 µM
GI50 (K-562 leukemia): 0.53 µM
TGI (K-562 leukemia): > 100 µM
GI50 (HS 578T breast): 3.44 µM
TGI (HS 578T breast): > 100 µM
GI50 (HOP-92 NSCLC): 1.77 µM
TGI (HOP-92 NSCLC): 30 µM
GI50 (HCC-2998 colon): 3.63 µM
TGI (HCC-2998 colon): 26.8 µM
GI50 (CCRF-CEM leukemia): 0.468 µM
TGI (CCRF-CEM leukemia): > 100 µM
GI50 (ACHN renal): 0.647 µM
TGI (ACHN renal): 31.8 µM
GI50 (A549 NSCLC): 1.24 µM
TGI (A549 NSCLC): 16 µM
GI50 (PC-3 prostate): 1.45 µM
TGI (PC-3 prostate): 30.2 µM
GI50 (MOLT-4 leukemia): 0.699 µM
TGI (MOLT-4 leukemia): 41.5 µM
GI50 (SF-268 CNS): 1.99 µM
TGI (SF-268 CNS): > 100 µM
GI50 (SW-620 colon): 0.821 µM
TGI (SW-620 colon): 20.3 µM
GI50 (MDA-MB-231 breast): 1.8 µM
TGI (MDA-MB-231 breast): 17.3 µM
GI50 (U251 CNS): 0.601 µM
TGI (U251 CNS): 10.9 µM
GI50 (MALME-3M melanoma): 3.38 µM
TGI (MALME-3M melanoma): 18.9 µM
GI50 (COLO 205 colon): 0.949 µM
TGI (COLO 205 colon): 13.9 µM
GI50 (MDA-MB-435): 2.09 µM
TGI (MDA-MB-435): 18.7 µM
GI50 (HT29 colon): 0.552 µM
TGI (HT29 colon): 14.8 µM
GI50 (UACC-62 melanoma): 2.3 µM
TGI (UACC-62 melanoma): 13.1 µM
GI50 (RXF 393 renal): 1.65 µM
TGI (RXF 393 renal): 5.19 µM
GI50 (TK-10 renal): 1.48 µM
TGI (TK-10 renal): 58.4 µM
GI50 (M14 melanoma): 1.37 µM
TGI (M14 melanoma): 13.1 µM
GI50 (OVCAR-8 ovarian): 0.846 µM
TGI (OVCAR-8 ovarian): 15.1 µM
GI50 (BT-549 breast): 2.32 µM
TGI (BT-549 breast): > 100 µM
GI50 (SNB-19 CNS): 2.05 µM
TGI (SNB-19 CNS): 28.4 µM
GI50 (EKVX NSCLC): 1.08 µM
TGI (EKVX NSCLC): 23 µM
GI50 (UACC-257 melanoma): 2.23 µM
TGI (UACC-257 melanoma): 6.93 µM
GI50 (UO-31 renal): 0.26 µM
TGI (UO-31 renal): 14.6 µM
GI50 (SK-OV-3 ovarian): 2.35 µM
TGI (SK-OV-3 ovarian): 56 µM
GI50 (HL-60(TB) leukemia): 1.03 µM
GI50 (OVCAR-3 ovarian): 2.02 µM
TGI (OVCAR-3 ovarian): 49.8 µM
GI50 (HOP-62 NSCLC): 0.747 µM
TGI (HOP-62 NSCLC): 14.4 µM
GI50 (KM12 colon): 2.14 µM
TGI (KM12 colon): > 100 µM
GI50 (CAKI-1 renal): 0.933 µM
TGI (CAKI-1 renal): 19.7 µM
GI50 (NCI-H226 lung): 1.7 µM
TGI (NCI-H226 lung): 18.2 µM
GI50 (SR leukemia): 0.722 µM
TGI (SR leukemia): 20.5 µM
GI50 (SK-MEL-5 melanoma): 2.76 µM
TGI (SK-MEL-5 melanoma): 23.6 µM
GI50 (DU-145 prostate): 2.68 µM
TGI (DU-145 prostate): > 100 µM
GI50 (SF-539 CNS): 1.32 µM
TGI (SF-539 CNS): 12.1 µM
GI50 (OVCAR-4 ovarian): 0.667 µM
TGI (OVCAR-4 ovarian): 19.1 µM
GI50 (SNB-75 CNS): 0.538 µM
TGI (SNB-75 CNS): 13 µM
GI50 (HCT-15 colon): 0.355 µM
TGI (HCT-15 colon): 16.3 µM
GI50 (SN12C renal): 1.82 µM
TGI (SN12C renal): 37 µM
GI50 (SF-295 CNS): 0.744 µM
TGI (SF-295 CNS): 14.6 µM
GI50 (OVCAR-5 ovarian): 2.71 µM
TGI (OVCAR-5 ovarian): 97.7 µM
GI50 (RPMI-8226 leukemia): 1.76 µM
TGI (RPMI-8226 leukemia): 15.6 µM
GI50 (MCF7 breast): 0.531 µM
TGI (MCF7 breast): 12.3 µM
GI50 (T-47D breast): 1.06 µM
TGI (T-47D breast): 64.5 µM

Cc1[nH]c(C(=O)Nc2ccccc2OCc2cccc(C(=O)N3CCC[C@@H](N)C3)c2)c(Cl)c1Cl
GI50 (NCI-H460 lung): 1.93 µM
TGI (NCI-H460 lung): 3.76 µM
GI50 (A498 renal): 1.56 µM
TGI (A498 renal): 3.01 µM
GI50 (K-562 leukemia): 1.13 µM
TGI (K-562 leukemia): 2.5 µM
GI50 (HOP-92 NSCLC): 1.06 µM
TGI (HOP-92 NSCLC): 2.62 µM
GI50 (CCRF-CEM leukemia): 1.24 µM
TGI (CCRF-CEM leukemia): 2.99 µM
GI50 (ACHN renal): 1.61 µM
TGI (ACHN renal): 3.02 µM
GI50 (PC-3 prostate): 1.53 µM
TGI (PC-3 prostate): 3.06 µM
GI50 (MOLT-4 leukemia): 1.69 µM
TGI (MOLT-4 leukemia): 3.43 µM
GI50 (SW-620 colon): 1.63 µM
TGI (SW-620 colon): 3.12 µM
GI50 (MDA-MB-231 breast): 1.77 µM
TGI (MDA-MB-231 breast): 3.5 µM
GI50 (UACC-62 melanoma): 1.6 µM
TGI (UACC-62 melanoma): 3.09 µM
GI50 (RXF 393 renal): 1.64 µM
TGI (RXF 393 renal): 3.3 µM
GI50 (TK-10 renal): 2.04 µM
TGI (TK-10 renal): 3.7 µM
GI50 (OVCAR-8 ovarian): 2.06 µM
TGI (OVCAR-8 ovarian): 4.57 µM
GI50 (BT-549 breast): 1.78 µM
TGI (BT-549 breast): 3.43 µM
GI50 (UO-31 renal): 1.33 µM
TGI (UO-31 renal): 2.8 µM
GI50 (SK-OV-3 ovarian): 1.8 µM
TGI (SK-OV-3 ovarian): 3.39 µM
GI50 (HL-60(TB) leukemia): 1.12 µM
TGI (HL-60(TB) leukemia): 2.67 µM
GI50 (OVCAR-3 ovarian): 1.71 µM
TGI (OVCAR-3 ovarian): 3.15 µM
GI50 (KM12 colon): 1.82 µM
TGI (KM12 colon): 3.4 µM
GI50 (CAKI-1 renal): 1.63 µM
TGI (CAKI-1 renal): 3.17 µM
GI50 (SR leukemia): 0.254 µM
TGI (SR leukemia): 0.771 µM
GI50 (SK-MEL-5 melanoma): 1.72 µM
TGI (SK-MEL-5 melanoma): 3.11 µM
GI50 (DU-145 prostate): 1.79 µM
TGI (DU-145 prostate): 3.26 µM
GI50 (SF-539 CNS): 1.57 µM
TGI (SF-539 CNS): 2.96 µM
GI50 (SNB-75 CNS): 1.33 µM
TGI (SNB-75 CNS): 2.71 µM
GI50 (SN12C renal): 1.77 µM
TGI (SN12C renal): 3.41 µM
GI50 (SF-295 CNS): 1.79 µM
TGI (SF-295 CNS): 3.36 µM
GI50 (OVCAR-5 ovarian): 1.57 µM
TGI (OVCAR-5 ovarian): 2.98 µM
